These results are taken from the RepoRT retention time repository (doi:10.1007/s00216-021-03828-0).

Common to all, as to settings: stereoisomer not certain
A short description of series [1]: RP, Merck Supelco Ascentis Express C18, 100 × 2.1 mm, 2 µm, 40 °C, 0.2 mL/min, estimated dead time 1.1 min; A: water + 0.1% formic acid, pH 3; B: acetonitrile + 0.1% formic acid, pH 3; gradient (min/%B) 0/5 2/5 17/99.9 20/99.9.
Assay in series [2]: as above
The source holds these as a separate data set.

Series [3] in a line: RP, Merck Supelco Ascentis Express C18, 100 × 2.1 mm, 2 µm, 40 °C, 0.4 mL/min, estimated dead time 0.55 min; A: water + 0.1% formic acid, pH 3; B: acetonitrile + 0.1% formic acid, pH 3; gradient (min/%B) 0/5 2/5 17/99.9 20/99.9.
Assay in series [4]: as above
The source holds these as a separate data set.

Series [5] in a line: RP, Merck Supelco Ascentis Express C18, 100 × 2.1 mm, 2 µm, 39 °C, 0.3 mL/min, estimated dead time 0.73 min; A: water + 0.1% formic acid, pH 3; B: acetonitrile + 0.1% formic acid, pH 3; gradient (min/%B) 0/5 2/5 17/99.9 20/99.9.
Series [6] can be described thus: RP, Merck Supelco Ascentis Express C18, 100 × 2.1 mm, 2 µm, 40 °C, 0.25 mL/min, estimated dead time 0.88 min; A: water + 0.1% formic acid, pH 3; B: acetonitrile + 0.1% formic acid, pH 3; gradient (min/%B) 0/5 2/5 17/99.9 20/99.9.
Series [7] can be described thus: RP, Merck Supelco Ascentis Express C18, 100 × 2.1 mm, 2 µm, 40 °C, 0.35 mL/min, estimated dead time 0.63 min; A: water + 0.1% formic acid, pH 3; B: acetonitrile + 0.1% formic acid, pH 3; gradient (min/%B) 0/5 2/5 17/99.9 20/99.9.

SMILES strings stand for the structures.

On to `O=C(O)CCCCCCCCC(=O)O` [SEBACATE], for which the LC retention time is 7.81 min in series [1]; 7.79 min in series [2]; 6.39 min in series [3]; 6.34 min in series [4]; 6.92 min in series [5]; 7.27 min in series [6]. In addition, in series [7], the LC retention time is 6.59 min.
Consider `O=C([O-])CCCCCCC(=O)[O-]` [SUBERATE], for which the LC retention time is 6.08 min in series [1]; 6.08 min in series [2]; 4.62 min in series [3]; 4.59 min in series [4]; 5.22 min in series [5]; 5.55 min in series [6]. In series [7], the LC retention time is 4.87 min.
As to `Cn1c(=O)c2[nH]cnc2n(C)c1=O` [THEOPHYLLINE], the LC retention time in series [1] was 3.98 min; in series [2], 3.96 min; in series [3] it was 2.16 min; in series [4], 2.15 min; in series [5], 2.81 min; in series [6], 3.32 min. In series [7], the LC retention time is 2.47 min.
As to `CSc1ncnc2nc[nH]c12` [THIOPURINE S-METHYLETHER], the LC retention time in series [1] was 4.85 min; in series [2] it was 4.85 min; in series [3], 3.37 min; in series [4], 3.33 min; in series [5], 3.94 min; in series [6] it was 4.33 min. In addition, the LC retention time in series [7] was 3.61 min.
For the molecule `Cc1cn(C2CC(O)C(CO)O2)c(=O)[nH]c1=O` (stereo not given) [THYMIDINE], the LC retention time in series [1] is 2.06 min; in series [2] it was 2.09 min; in series [3], 1.05 min; in series [4], 1.04 min; in series [5] it was 1.36 min; in series [6] it was 1.64 min. Also, the LC retention time in series [7] was 1.19 min.
Consider `Cc1c[nH]c(=O)[nH]c1=O` [THYMINE], for which the LC retention time in series [1] is 1.59 min; in series [2], 1.6 min; in series [3], 0.783 min; in series [4], 0.8 min; in series [5], 1.05 min; in series [6], 1.27 min. Further, in series [7], the LC retention time was 0.903 min.
Regarding `NC(Cc1cc(I)c(Oc2cc(I)c(O)c(I)c2)c(I)c1)C(=O)O` (stereo not given) [THYROXINE], the LC retention time in series [1] is 8.88 min; in series [2], 8.87 min; in series [3] it was 7.69 min; in series [4] it was 7.65 min; in series [5] it was 8.11 min; in series [6] it was 8.44 min. Further, the LC retention time in series [7] is 7.87 min.
As for `O=C(O)/C=C/c1ccccc1` [TRANS-CINNAMATE], the LC retention time in series [1] was 8.31 min; in series [2] it was 8.28 min; in series [3], 6.59 min; in series [4], 6.54 min; in series [5] it was 7.27 min; in series [6], 7.67 min. In addition, the LC retention time in series [7] is 6.86 min.
On to `O=c1[nH]c(=O)c2ncn(C3OC(CO)C(O)C3O)c2[nH]1` (stereo not given) [XANTHOSINE], for which the LC retention time is 1.62 min in series [1]; 1.65 min in series [2]; 0.81 min in series [3]; 0.81 min in series [4]; 1.05 min in series [5]; 1.29 min in series [6]. Further, in series [7], the LC retention time was 0.923 min.
`O=C(O)c1cc(=O)c2cccc(O)c2[nH]1` [XANTHURENATE]: the LC retention time in series [1] is 4.17 min; in series [2] it was 4.15 min; in series [3], 2.28 min; in series [4], 2.29 min; in series [5], 3.33 min; in series [6], 3.61 min. For the same molecule, the LC retention time in series [7] was 2.57 min.
